Read-outs that look alike come from different tables or passages of the source.

One assay deals with 5-HT5a (Homo sapiens, UniProt P47898). In words: Serotonin receptor 5-HT5a binding. Conditions: [^3H]LSD, Human recombinant HEK-293 cells, read-out: CR6086 Activity at 10µM.
Assay [1] deals with arthritic mice (collagen-induced arthritis model). Kind of assay: CIA in mice, first study: clinical score and paw swelling. Conditions: 10 days; CR6086 30 and 60 mg/kg, naproxen 60 mg/kg oral once daily; etanercept 10 mg/kg i.p. every other day. The class given is in vivo, mouse. Here is the method:
Male DBA/1 mice were immunised by intradermal injection at the base of the tail with an emulsion of 200 μg of bCII in CFA containing 3 mg/ml Mycobacterium tuberculosis. Non-immunised mice served as the negative control of disease. Animals were monitored by visual inspection for appearance of peripheral oedema. […] Upon onset, animals were recruited and randomised. Recruitment was given a cut-off at day 40. Upon recruitment, arthritis clinical score was assigned, and oedema was measured via caliper.
In a first study, mice were randomised into the following treatment groups: vehicle, 30 mg/kg CR6086, 60 mg/kg CR6086, 60 mg/kg naproxen and 10 mg/kg etanercept. Animals received the test drugs for 10 days. CR6086 and naproxen were administered orally once daily, whereas etanercept was administered intraperitoneally every other day. Animals treated with vehicle, 60 mg/kg CR6086, naproxen and etanercept were additionally analysed for the proportion of populations of Th17 cells, Th1 cells, regulatory T cells, B cells, macrophages, neutrophils and dendritic cells by fluorescence-activated cell sorting (FACS) after collection of blood, draining lymph nodes and joints.
Oedema measurement was performed every day before treatment, and all animals were blindly scored for clinical signs of arthritis as follows: 0 = normal; 1 = slight swelling and/or erythema; 2 = pronounced oedematous swelling; and 3 = ankyloses and severe swelling. A score of 0.5 was given to swollen toe/toes or when inflammation was localised to one part of the foot. Each limb was measured separately, with a final score based on the sum of the scores from all four paws.

The target of another assay is rat EP4 receptor (Rattus norvegicus, UniProt P43114). In words: EP4 radioligand binding assay ([^3H]PGE2), rat receptor. Also noted: the cDNA encoding the full-length rat (NM_032076) or mouse (NM_001136079) EP4 receptors; host or cells: HEK293 (transient). An excerpt: For rodent EP4 receptor cloning, the cDNA encoding the full-length rat (NM_032076) or mouse (NM_001136079) EP4 receptors cloned in pCMV6 entry was provided by OriGene Inc. (TrueORF Gold, catalogue numbers RN206839 and MC216813; OriGene, Rockville, MD, USA). Expression of rat and mouse receptors was obtained by transfecting HEK293 cells with the respective vector using Lipofectamine 3000 reagent (Thermo Fisher Scientific) according to the manufacturer’s instructions.
Membranes expressing the human EP4 receptor were prepared from stably transfected HEK293 cell line. […] Protein content of the cell membrane suspension was determined using bovine serum albumin (BSA) as a standard.
Experimental procedures were performed according to the method of Abramovitz et al.. […] The residual [^3H]PGE2 binding was determined using a solid scintillation counter (TopCount; PerkinElmer) after at least 1 h of stabilisation. In saturation binding studies, isotherm-binding curves generated with six to eight different concentrations of [^3H]PGE2 (from 0.5 to 25 nM) were evaluated. […]
Specific binding to the receptors was defined as the difference between total binding and non-specific binding, as determined in the presence of an excess of unlabelled ligand. […] Competition curves were analysed to assess the half-maximal inhibitory concentration (IC50). […] The results of replicated curves were expressed as mean ± SEM.

For the next assay, the target named is M2 (Homo sapiens, UniProt P08172). Kind of assay: Muscarinic acetylcholine receptor M2 binding. Conditions: [^3H]AF-DX 384, Human recombinant CHO cells, read-out: CR6086 Activity at 10µM.
The target of the next assay is NTS1 (NT1) (Homo sapiens, UniProt P30989). Kind of assay: NTS1 receptor binding. Conditions: [^125I]Tyr^3-neurotensin, Human recombinant CHO cells, read-out: CR6086 Activity at 10µM.
Sequence of NTS1 (NT1) (P30989 whole entry): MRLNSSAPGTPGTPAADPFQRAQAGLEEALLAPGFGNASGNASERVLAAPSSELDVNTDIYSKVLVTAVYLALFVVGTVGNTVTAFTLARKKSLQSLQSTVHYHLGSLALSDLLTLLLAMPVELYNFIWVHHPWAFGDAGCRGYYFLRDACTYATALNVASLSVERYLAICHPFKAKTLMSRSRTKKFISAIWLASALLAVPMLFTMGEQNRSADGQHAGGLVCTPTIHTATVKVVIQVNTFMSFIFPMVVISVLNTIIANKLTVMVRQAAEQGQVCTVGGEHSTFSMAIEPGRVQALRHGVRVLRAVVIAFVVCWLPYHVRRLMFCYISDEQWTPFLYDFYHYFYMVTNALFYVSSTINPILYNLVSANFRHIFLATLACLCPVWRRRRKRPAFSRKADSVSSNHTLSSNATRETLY

Sequence of rat EP4 receptor (P43114 whole entry): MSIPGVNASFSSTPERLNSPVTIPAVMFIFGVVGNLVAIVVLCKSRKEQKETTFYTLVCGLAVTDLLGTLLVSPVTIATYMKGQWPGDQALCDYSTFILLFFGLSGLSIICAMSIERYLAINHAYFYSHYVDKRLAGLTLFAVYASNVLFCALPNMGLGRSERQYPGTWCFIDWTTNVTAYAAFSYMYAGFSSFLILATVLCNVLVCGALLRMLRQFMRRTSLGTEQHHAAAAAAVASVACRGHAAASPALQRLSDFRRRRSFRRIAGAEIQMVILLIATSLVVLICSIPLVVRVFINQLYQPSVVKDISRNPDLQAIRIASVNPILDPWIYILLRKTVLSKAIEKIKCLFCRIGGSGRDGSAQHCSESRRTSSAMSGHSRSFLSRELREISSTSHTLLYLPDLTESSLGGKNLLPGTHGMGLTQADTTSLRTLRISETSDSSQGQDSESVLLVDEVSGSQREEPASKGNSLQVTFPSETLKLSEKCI
Sequence of M2 (P08172 whole entry): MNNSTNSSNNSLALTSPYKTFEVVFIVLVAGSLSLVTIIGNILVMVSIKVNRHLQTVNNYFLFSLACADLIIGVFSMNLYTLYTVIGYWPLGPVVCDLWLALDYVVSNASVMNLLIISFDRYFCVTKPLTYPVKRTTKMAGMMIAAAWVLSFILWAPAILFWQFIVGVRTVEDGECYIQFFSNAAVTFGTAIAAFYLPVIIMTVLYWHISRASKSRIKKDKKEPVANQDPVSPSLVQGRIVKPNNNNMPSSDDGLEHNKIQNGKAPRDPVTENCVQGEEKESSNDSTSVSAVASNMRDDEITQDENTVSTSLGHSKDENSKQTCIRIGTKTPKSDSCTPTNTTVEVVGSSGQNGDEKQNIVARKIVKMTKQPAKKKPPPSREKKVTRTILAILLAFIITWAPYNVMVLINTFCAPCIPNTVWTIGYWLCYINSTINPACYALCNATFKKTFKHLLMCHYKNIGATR
Sequence of 5-HT5a (P47898 whole entry): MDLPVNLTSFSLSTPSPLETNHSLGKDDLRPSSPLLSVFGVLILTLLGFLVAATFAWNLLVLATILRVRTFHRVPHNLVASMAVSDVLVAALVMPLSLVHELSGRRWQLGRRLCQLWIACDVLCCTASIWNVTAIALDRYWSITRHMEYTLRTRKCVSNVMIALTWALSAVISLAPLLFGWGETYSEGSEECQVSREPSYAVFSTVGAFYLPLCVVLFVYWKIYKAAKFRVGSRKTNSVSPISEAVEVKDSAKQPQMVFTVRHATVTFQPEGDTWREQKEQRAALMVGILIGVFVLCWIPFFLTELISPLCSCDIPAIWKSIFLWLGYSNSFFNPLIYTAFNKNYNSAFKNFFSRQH

For `O=C([O-])c1ccc(C2(NC(=O)[C@H]3CC4(CCN3Cc3ccc(C(F)(F)F)cc3)CC4)CC2)cc1.[Na+]` [CR6086, Sodium (R)-4-(1-(6-(4-(trifluoromethyl)benzyl)-6-azaspiro[2.5]octane-5-carboxamido)cyclopropyl)benzoate], the inhibition at 10 µM on 5-HT5a, on M2 and on NTS1 (NT1) was below 20% throughout. For the same molecule, the “effect on disease parameters (visual clinical score, paw swelling) vs vehicle” value in assay [1] is reported as “significantly improved”. Moreover, the Ki on rat EP4 receptor ([^3H]PGE2 displacement, transiently transfected HEK293 membranes, read-out: Ki CR6086) was 0.0766 ± 0.0123 µM; at rat EP4 receptor (expressed as mass concentration, read-out: Ki value for the rat EP4 receptor (converted)), 0.0732 µM.

Values taken from article PMC5831858, “Pharmacological characterisation of CR6086, a potent prostaglandin E2 receptor 4 antagonist, as a new potential disease-modifying anti-rheumatic drug” (Arthritis Research & Therapy, 2018).
